Laboratory results published in patent US12577255B2, “MDM2-based modulators of proteolysis and associated methods of use” (Arvinas Operations, Inc., priority 2015, dated 2026).

Legend:
MDM2 = target: T1, MDM2 (Homo sapiens, UniProt Q00987); experiment: Western blot of HCT116 cells, MDM2 level; assay type: cell-based; details: Western blot (FIG. 2, FIG. 3)
T1 construct: Western blot of HCT116 cells treated with chimeric molecules; endogenous in cells; host or cells: HCT116

[1] = target: T2, bromodomain-containing protein 4 (BRD4) (Homo sapiens, UniProt O60885); experiment: BRD4 Western blot (degradation); assay type: cell-based; details: at 1 μM; VCaP cells, 16 h
T2 construct: VCaP cells were chased from ATCC and cultured in Dulbecco's Modified Eagle's Medium; host or cells: VCaP
Description: (§1) The following biological assays were performed to evaluate the protein degradation in various cell types using representative compounds disclosed. The degradation of the following proteins were evaluated: bromodomain-containing protein 4 (BRD4), androgen receptor (AR), c-Myc, c-Jun N-terminal kinases (JNK), and enhancer of zeste homolog 2 (EZH2).
VCaP cells were chased from ATCC and cultured in Dulbecco's Modified Eagle's Medium (ATCC), supplemented with 10% FBS (ATCC) and Penicillin/Streptomycin (Life Technologies). DMSO control and compound treatments (0.03 μM to 1 μM) were performed in 12-well plates for 16 h. cells were harvested, and lysed in RIPA buffer (50 mM Tris pH8, 150 mM NaCl, 1% Tx-100, 0.1% SDS, 0.5% sodium deoxycholate) supplemented with protease and phosphatase inhibitors. Lysates were clarified at 16,000 g for 10 minutes, and protein concentration was determined. Equal amount of protein (20 μg) was subjected to SDS-PAGE analysis and followed by immunoblotting according to standard protocols. The antibodies used were BRD4 (Cell signaling #13440), and Actin (Sigma #5441). Detection reagents were Clarity Western ELC substrate (Bio-rad #170-5060).

p53 = experiment: Western blot of HCT116 cells, p53 level; assay type: cell-based, human; details: Western blot (FIG. 2, FIG. 3)
BRD4 = BRD4 (Homo sapiens, UniProt O60885); experiment: Time course of BRD4 degradation in A549; assay type: cell-based; set-up: endogenous in cells; host or cells: A549; details: human lung cancer cell line A549 (FIG. 6)
[2] = system: p53^WT HCT-116 colon cancer cell lines; experiment: Cell growth assay; assay type: cell-based, human; details: p53^WT HCT-116 (FIG. 4)
[3] = system: c-Jun N-terminal kinases (JNK); experiment: JNK Western blot assay (degradation); assay type: cell-based; details: at 1 μM; 16 h
Description: as §1
(§2) Cells were purchased from ATCC and cultured in Dulbecco's Modified Eagle's Medium (ATCC), supplemented with 10% FBS (ATCC) and Penicillin/Streptomycin (Life Technologies). […] Cells were harvested, and lysed in RIPA buffer (50 mM Tris pH8, 150 mM NaCl, 1% Tx-100, 0.1% SDS, 0.5% sodium deoxycholate) supplemented with protease and phosphatase inhibitors. Lysates were clarified at 16,000 g for 10 minutes, and protein concentration was determined. Equal amount of protein (20 μg) was subjected to SDS-PAGE analysis and followed by immunoblotting according to standard protocols.

[4] = target: enhancer of zeste homolog 2 (EZH2) (Homo sapiens, UniProt Q15910); experiment: EZH2 Western blot assay (degradation); assay type: cell-based; details: at 1 μM; 16 h
Sequence of enhancer of zeste homolog 2 (EZH2) (Q15910 whole entry): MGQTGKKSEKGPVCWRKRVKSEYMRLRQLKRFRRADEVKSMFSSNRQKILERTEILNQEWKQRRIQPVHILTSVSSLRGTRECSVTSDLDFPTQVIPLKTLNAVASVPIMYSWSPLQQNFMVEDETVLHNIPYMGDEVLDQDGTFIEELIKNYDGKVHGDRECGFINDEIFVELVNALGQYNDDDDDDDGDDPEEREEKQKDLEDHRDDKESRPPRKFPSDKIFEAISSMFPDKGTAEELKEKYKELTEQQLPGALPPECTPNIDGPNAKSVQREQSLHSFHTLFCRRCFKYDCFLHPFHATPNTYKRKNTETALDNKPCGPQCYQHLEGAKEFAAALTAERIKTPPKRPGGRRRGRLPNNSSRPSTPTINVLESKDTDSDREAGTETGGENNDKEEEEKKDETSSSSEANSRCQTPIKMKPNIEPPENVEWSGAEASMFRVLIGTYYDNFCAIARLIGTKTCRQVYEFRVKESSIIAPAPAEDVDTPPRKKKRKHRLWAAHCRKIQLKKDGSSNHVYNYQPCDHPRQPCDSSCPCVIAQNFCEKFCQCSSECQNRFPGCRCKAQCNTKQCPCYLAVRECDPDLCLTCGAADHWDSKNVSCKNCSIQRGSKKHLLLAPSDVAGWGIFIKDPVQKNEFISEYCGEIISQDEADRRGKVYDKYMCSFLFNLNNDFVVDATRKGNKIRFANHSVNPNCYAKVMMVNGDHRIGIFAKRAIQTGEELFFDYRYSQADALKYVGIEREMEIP
Sequence of enhancer of zeste homolog 2 (EZH2) (O75530 whole entry partner): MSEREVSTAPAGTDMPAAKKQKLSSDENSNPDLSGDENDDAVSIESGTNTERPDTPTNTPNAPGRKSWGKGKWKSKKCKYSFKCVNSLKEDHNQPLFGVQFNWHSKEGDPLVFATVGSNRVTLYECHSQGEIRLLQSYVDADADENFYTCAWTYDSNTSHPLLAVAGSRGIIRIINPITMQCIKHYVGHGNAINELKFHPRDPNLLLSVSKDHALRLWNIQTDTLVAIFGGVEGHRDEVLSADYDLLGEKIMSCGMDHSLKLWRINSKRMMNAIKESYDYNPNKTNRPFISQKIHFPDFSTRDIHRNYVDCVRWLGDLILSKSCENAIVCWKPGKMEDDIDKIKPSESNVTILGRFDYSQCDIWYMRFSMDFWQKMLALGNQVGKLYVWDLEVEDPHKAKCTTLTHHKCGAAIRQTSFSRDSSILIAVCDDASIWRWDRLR
Sequence of enhancer of zeste homolog 2 (EZH2) (Q15022 whole entry partner): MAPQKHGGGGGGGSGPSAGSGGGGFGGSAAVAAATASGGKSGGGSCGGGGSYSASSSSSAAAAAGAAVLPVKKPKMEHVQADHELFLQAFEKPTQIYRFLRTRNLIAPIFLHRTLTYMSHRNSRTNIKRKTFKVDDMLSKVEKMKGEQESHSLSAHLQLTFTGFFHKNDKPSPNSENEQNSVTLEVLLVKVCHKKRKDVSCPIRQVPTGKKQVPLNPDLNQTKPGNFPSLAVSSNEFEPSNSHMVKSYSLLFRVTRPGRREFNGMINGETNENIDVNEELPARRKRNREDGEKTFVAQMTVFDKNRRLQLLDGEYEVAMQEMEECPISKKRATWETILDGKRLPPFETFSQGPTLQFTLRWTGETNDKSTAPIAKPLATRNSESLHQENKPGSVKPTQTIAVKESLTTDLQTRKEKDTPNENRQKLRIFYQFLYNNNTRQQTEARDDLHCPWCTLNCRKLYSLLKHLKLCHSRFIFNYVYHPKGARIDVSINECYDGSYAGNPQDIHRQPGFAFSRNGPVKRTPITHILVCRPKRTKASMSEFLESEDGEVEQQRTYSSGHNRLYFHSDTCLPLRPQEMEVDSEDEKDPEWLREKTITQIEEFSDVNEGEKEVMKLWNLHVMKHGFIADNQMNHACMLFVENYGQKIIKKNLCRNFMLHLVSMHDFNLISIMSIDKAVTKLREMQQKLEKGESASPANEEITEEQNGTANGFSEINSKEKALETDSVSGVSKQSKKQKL
Description: as §1, §2

T1 sequence (Q00987 whole entry): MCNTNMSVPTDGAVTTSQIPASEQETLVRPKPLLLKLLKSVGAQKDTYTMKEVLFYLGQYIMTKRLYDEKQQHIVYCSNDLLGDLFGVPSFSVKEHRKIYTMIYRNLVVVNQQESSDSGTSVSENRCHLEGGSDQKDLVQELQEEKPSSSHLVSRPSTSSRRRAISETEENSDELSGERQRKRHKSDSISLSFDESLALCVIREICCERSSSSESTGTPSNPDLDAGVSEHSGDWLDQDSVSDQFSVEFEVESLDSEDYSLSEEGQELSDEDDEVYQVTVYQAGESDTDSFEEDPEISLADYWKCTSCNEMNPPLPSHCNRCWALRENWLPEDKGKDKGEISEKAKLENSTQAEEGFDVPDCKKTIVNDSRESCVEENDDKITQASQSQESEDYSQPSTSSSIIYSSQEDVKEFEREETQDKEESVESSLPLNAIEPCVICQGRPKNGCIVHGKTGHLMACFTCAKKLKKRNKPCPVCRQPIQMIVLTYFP

Compound | MDM2 up-regulation (MDM2) | Degradation activity BRD4 [1] | p53 level increase (p53) | Degradation activity JNK [3] | further results
COc1cc(C(=O)NCCOCCNC(=O)C[C@@H]2N=C(c3ccc(Cl)cc3)c3c(sc(C)c3C)-n3c(C)nnc32)ccc1NC(=O)[C@@H]1N[C@@H](CC(C)(C)C)[C@](C#N)(c2ccc(Cl)cc2F)[C@H]1c1cccc(Cl)c1F [Compound A1892, (2R,3S,4R,5S)-3-(3-chloro-2-fluorophenyl)-4-(4-chloro-2-fluorophenyl)-N-(4-{[2-(2-{2-[(9S)-7-(4-chlorophenyl)-4,5,13-trimethyl-3-thia-1,8,11,12-tetraazatricyclo[8.3.0.0^2,^6]-trideca-2(6),4,7,10,12-pentaen-9-yl]acetamido}ethoxy)ethyl]carbamoyl}-2-methoxyphenyl)-4-cyano-5-(2,2-dimethylpropyl)pyrrolidine-2-carboxamide] | up-regulation of MDM2 | C (larger than 50% degradation at 1 μM) | dose dependent p53 level increase |  | 
COc1cc(C(=O)NCCOCCOCCOCCOCCNC(=O)C[C@@H]2N=C(c3ccc(Cl)cc3)c3c(sc(C)c3C)-n3c(C)nnc32)ccc1NC(=O)[C@@H]1N[C@@H](CC(C)(C)C)[C@](C#N)(c2ccc(Cl)cc2F)[C@H]1c1cccc(Cl)c1F [Compound A1893, (2R,3S,4R,5S)-3-(3-chloro-2-fluorophenyl)-4-(4-chloro-2-fluorophenyl)-N-{4-[(14-{2-[(9S)-7-(4-chlorophenyl)-4,5,13-trimethyl-3-thia-1,8,11,12-tetraazatricyclo[8.3.0.0^2,^6]-trideca-2(6),4,7,10,12-pentaen-9-yl]acetamido}-3,6,9,12-tetraoxatetradecan-1-yl)carbamoyl]-2-methoxyphenyl}-4-cyano-5-(2,2-dimethylpropyl)pyrrolidine-2-carboxamide] | up-regulation of MDM2 | C (larger than 50% degradation at 1 μM) | dose dependent p53 level increase |  | BRD4 degradation, time course (BRD4): BRD4 degradation; growth inhibition [2]: very potent growth inhibition
COc1cc(C(=O)NCCOCCOCCOCCOCCNC(=O)C[C@@H]2N=C(c3ccc(Cl)cc3)c3c(sc(C)c3C)-n3c(C)nnc32)ccc1NC(=O)[C@H]1N[C@H](CC(C)(C)C)[C@@](C#N)(c2ccc(Cl)cc2F)[C@@H]1c1cccc(Cl)c1F [Compound A1894, (2S,3R,4S,5R)-3-(3-chloro-2-fluorophenyl)-4-(4-chloro-2-fluorophenyl)-N-{4-[(14-{2-[(9S)-7-(4-chlorophenyl)-4,5,13-trimethyl-3-thia-1,8,11,12-tetraazatricyclo[8.3.0.0^2,^6]-trideca-2(6),4,7,10,12-pentaen-9-yl]acetamido}-3,6,9,12-tetraoxatetradecan-1-yl)carbamoyl]-2-methoxyphenyl}-4-cyano-5-(2,2-dimethylpropyl)pyrrolidine-2-carboxamide] | no MDM2 up-regulation | A (0 to 25% degradation at 1 μM) | no p53 level increase |  | 
COc1cc(C(=O)NCCOCCO[C@H]2CC[C@H](Nc3nccc(-c4cnn(Cc5ccccc5)c4N(C)C)n3)CC2)ccc1NC(=O)C1N[C@@H](CC(C)(C)C)[C@](C#N)(c2ccc(Cl)cc2F)[C@H]1c1cccc(Cl)c1F (stereo partly drawn) [Compound A2720, 3-(3-chloro-2-fluorophenyl)-4-(4-chloro-2-fluorophenyl)-4-cyano-5-(2,2-dimethylpropyl)-N-(2-methoxy-4-{[2-(2-{[(1,4-trans)-4-({4-[1-benzyl-5-(dimethylamino)-1H-pyrazol-4-yl]pyrimidin-2-yl}amino)cyclohexyl]oxy}ethoxy)ethyl]carbamoyl}phenyl)pyrrolidine-2-carboxamide] |  |  |  | A (0 to 25% degradation at 1 μM) | 
COc1ccc(C(=O)NCCOCCOCCO[C@H]2CC[C@H](Nc3nccc(-c4cnn(Cc5ccccc5)c4N(C)C)n3)CC2)cc1NC(=O)C1N[C@@H](CC(C)(C)C)[C@](C#N)(c2ccc(Cl)cc2F)[C@H]1c1cccc(Cl)c1F (stereo partly drawn) [Compound A2766, 3-(3-chloro-2-fluorophenyl)-4-(4-chloro-2-fluorophenyl)-4-cyano-5-(2,2-dimethylpropyl)-N-[2-methoxy-5-({2-[2-(2-{[(1,4-trans)-4-({4-[1-benzyl-5-(dimethylamino)-1H-pyrazol-4-yl]pyrimidin-2-yl}amino)cyclohexyl]oxy}ethoxy)ethoxy]ethyl}carbamoyl)phenyl]pyrrolidine-2-carboxamide] |  |  |  | A (0 to 25% degradation at 1 μM) | 
CCN(c1cc(-c2ccc(OCCOCCOCCOCCNC(=O)c3ccc(NC(=O)C4NC(CC(C)(C)C)C(C#N)(c5ccc(Cl)cc5F)C4c4cccc(Cl)c4F)c(OC)c3)cc2)cc(C(=O)NCc2c(C)cc(C)[nH]c2=O)c1C)C1CCOCC1 (centres unmarked) [Compound A2790, 3-(3-chloro-2-fluorophenyl)-4-(4-chloro-2-fluorophenyl)-4-cyano-N-[4-({1-[4-(3-{[(4,6-dimethyl-2-oxo-1,2-dihydropyridin-3-yl)methyl]carbamoyl}-5-[ethyl(oxan-4-yl)amino]-4-methylphenyl)phenyl]-1,4,7,10-tetraoxadodecan-12-yl}carbamoyl)-2-methoxyphenyl]-5-(2,2-dimethylpropyl)pyrrolidine-2-carboxamide] |  |  |  |  | Degradation activity EZH2 [4]: A (0 to 25% degradation at 1 μM)
COc1cc(C(=O)NCCOCCOCCOCCO[C@H]2CC[C@H](Nc3nccc(-c4cnn(Cc5ccccc5)c4N(C)C)n3)CC2)ccc1NC(=O)C1N[C@@H](CC(C)(C)C)[C@](C#N)(c2ccc(Cl)cc2F)[C@H]1c1cccc(Cl)c1F (stereo partly drawn) [Compound A2791, 3-(3-chloro-2-fluorophenyl)-4-(4-chloro-2-fluorophenyl)-4-cyano-5-(2,2-dimethylpropyl)-N-[2-methoxy-4-({1-[(1,4-trans)-4-({4-[1-benzyl-5-(dimethylamino)-1H-pyrazol-4-yl]pyrimidin-2-yl}amino)cyclohexyl]-1,4,7,10-tetraoxadodecan-12-yl}carbamoyl)phenyl]pyrrolidine-2-carboxamide] |  |  |  | A (0 to 25% degradation at 1 μM) | 
COc1ccc(C(=O)NCCOCCOCCOCCOCCO[C@H]2CC[C@H](Nc3nccc(-c4cnn(Cc5ccccc5)c4N(C)C)n3)CC2)cc1NC(=O)C1N[C@@H](CC(C)(C)C)[C@](C#N)(c2ccc(Cl)cc2F)[C@H]1c1cccc(Cl)c1F (stereo partly drawn) [Compound A2792, 3-(3-chloro-2-fluorophenyl)-4-(4-chloro-2-fluorophenyl)-4-cyano-5-(2,2-dimethylpropyl)-N-[2-methoxy-5-({1-[(1,4-trans)-4-({4-[1-benzyl-5-(dimethylamino)-1H-pyrazol-4-yl]pyrimidin-2-yl}amino)cyclohexyl]-1,4,7,10,13-pentaoxapentadecan-15-yl}carbamoyl)phenyl]pyrrolidine-2-carboxamide] |  |  |  | A (0 to 25% degradation at 1 μM) | 
CCN(c1cc(-c2ccc(OCCOCCOCCOCCOCCOCCNC(=O)c3ccc(NC(=O)C4NC(CC(C)(C)C)C(C#N)(c5ccc(Cl)cc5F)C4c4cccc(Cl)c4F)c(OC)c3)cc2)cc(C(=O)NCc2c(C)cc(C)[nH]c2=O)c1C)C1CCOCC1 (centres unmarked) [Compound A2844, 3-(3-chloro-2-fluorophenyl)-4-(4-chloro-2-fluorophenyl)-4-cyano-N-[4-({1-[4-(3-{[(4,6-dimethyl-2-oxo-1,2-dihydropyridin-3-yl)methyl]carbamoyl}-5-[ethyl(oxan-4-yl)amino]-4-methylphenyl)phenyl]-1,4,7,10,13,16-hexaoxaoctadecan-18-yl}carbamoyl)-2-methoxyphenyl]-5-(2,2-dimethylpropyl)pyrrolidine-2-carboxamide] |  |  |  |  | Degradation activity EZH2 [4]: A (0 to 25% degradation at 1 μM)
